Residues, ends and D or L forms follow the SMILES beside them.
System: primary human macrophages
Assay: Polynucleotide arrays of primary human macrophages treated with SEQ ID NO: 6 (Tables 27, 28)
Assay type: cell-based
Conditions: 50 μg/ml, 4 h

CC[C@H](C)[C@H](NC(=O)[C@@H]1CCCN1C(=O)[C@H](CS)NC(=O)[C@H](CCCNC(=N)N)NC(=O)[C@@H](N)CC(C)C)C(=O)N[C@@H](C)C(=O)N1CCC[C@H]1C(=O)N[C@H](C(=O)N[C@H](C(=O)N1CCC[C@H]1C(=O)N[C@H](C(=O)N[C@@H](CS)C(=O)N[C@@H](CCCCN)C(=O)N[C@@H](CCCCN)C(=O)O)C(C)C)[C@@H](C)CC)C(C)C [SEQ ID NO: 6] (H-LRCPIAPVIPVCKK-OH; N-terminus and C-terminus assumed)
Ratio peptide treated:control, Unknown (A433612): 5.0
Ratio peptide treated:control, KIAA1278 protein (AB03104): 2.9
Ratio peptide treated:control, proteasome 26S subunit non-ATPase 13 (AB009398): 0.44
Ratio peptide treated:control, KIAA0532 protein (AB011104): 2.8
Ratio peptide treated:control, KIAA0592 protein (AB011164): 4.0
Ratio peptide treated:control, IL-1 receptor-like 1 (AB012701): 0.35
Ratio peptide treated:control, interferon alpha-inducible protein (AB019565): 0.35
Ratio peptide treated:control, KIAA0842 protein (AB020649): 0.13
Ratio peptide treated:control, KIAA0922 protein (AB023139): 2.1
Ratio peptide treated:control, KIAA1013 protein (AB023230): 3.4
Ratio peptide treated:control, protease, serine, 21 (AB031331): 2.0
Ratio peptide treated:control, hypothetical protein FLJ20689 (AB032978): 2.9
Ratio peptide treated:control, cofactor required for Sp1 transcriptional activation subunit 3 (AB033042): 0.23
Ratio peptide treated:control, pancreatic zymogen granule membrane associated protein (AB035541): 3.7
Ratio peptide treated:control, Unknown (AB037838): 0.14
Ratio peptide treated:control, CDC14 homolog A (AF000367): 3.8
Ratio peptide treated:control, TNF receptor superfamily, member 10b (AF016266): 0.37
Ratio peptide treated:control, TNF superfamily, member 15 (AF039390): 0.46
Ratio peptide treated:control, transcription factor 21 (AF047419): 5.4
Ratio peptide treated:control, proteasome subunit alpha type, 7 (AF054185): 0.40
Ratio peptide treated:control, Granulin (AF055008): 0.14
Ratio peptide treated:control, matrix metalloproteinase 23A (AF056200): 2.7
Ratio peptide treated:control, chromosome condensation 1-like (AF060219): 4.8
Ratio peptide treated:control, Unknown (AF068289): 2.8
Ratio peptide treated:control, histone fold proteinCHRAC17 (AF070640): 3.8
Ratio peptide treated:control, NADH dehydrogenase 1 alpha subcomplex, 10 (AF087661): 2.1
Ratio peptide treated:control, potassium voltage-gated channel KQT-like subfamily member 4 (AF105202): 3.9
Ratio peptide treated:control, FYN-binding protein (AF198052): 3.3
Ratio peptide treated:control, c-Cbl-interacting protein (AF230904): 2.4
Ratio peptide treated:control, hypothetical protein FLJ20070 (AK000077): 3.4
Ratio peptide treated:control, hypothetical protein FLJ20495 (AK000502): 3.5
Ratio peptide treated:control, Unknown (AK001843): 8.2
Ratio peptide treated:control, peroxisome proliferative activated receptor delta (AL022721): 0.46
Ratio peptide treated:control, proteasome 26S subunit non-ATPase, 10 (AL031177): 0.32
Ratio peptide treated:control, Unknown (AL031864): 2.9
Ratio peptide treated:control, Unknown (AL049263): 0.06
Ratio peptide treated:control, DKFZP586B2420 protein (AL050143): 5.9
Ratio peptide treated:control, Unknown (AL050370): 0.38
Ratio peptide treated:control, Unknown (AL109678): 5.6
Ratio peptide treated:control, Unknown (AL117643): 2.7
Ratio peptide treated:control, eukaryotic translation initiation factor 4A, isoform 2 (AL137681): 3.4
Ratio peptide treated:control, Unknown (AL137715): 4.4
Ratio peptide treated:control, proteasome subunit alpha type, 4 (D00763): 0.49
Ratio peptide treated:control, proteasome 26S subunit ATPase, 2 (D11094): 0.49
Ratio peptide treated:control, defender against cell death 1 (D15057): 0.46
Ratio peptide treated:control, proteasome subunit beta type, 4 (D26600): 0.29
Ratio peptide treated:control, proteasome subunit beta type, 5 (D29011): 0.33
Ratio peptide treated:control, proteasome 26S subunit non-ATPase 8 (D38047): 0.28
Ratio peptide treated:control, proteasome subunit beta type 7 (D38048): 0.22
Ratio peptide treated:control, KIAA0152 gene product (D63486): 0.17
Ratio peptide treated:control, Cryptochrome 1 (D83702): 3.8
Ratio peptide treated:control, TGFB1-induced anti-apoptotic factor 1 (D86970): 0.19
Ratio peptide treated:control, MAP kinase kinase 3 (D87116): 0.37
Ratio peptide treated:control, proteasome 26S subunit ATPase, 1 (L02426): 0.49
Ratio peptide treated:control, MAP kinase kinase 1 (L11284): 2.4
Ratio peptide treated:control, MAP kinase 14 (L35263): 2.2
Ratio peptide treated:control, interferon receptor 2 (L42243): 2.5
Ratio peptide treated:control, IL-1 receptor-associated kinase 1 (L76191): 0.45
Ratio peptide treated:control, LINE retrotransposable element 1 (M22333): 4.0
Ratio peptide treated:control, TNF receptor superfamily member 1B (M32315): 0.29
Ratio peptide treated:control, proteasome 26S subunit, ATPase, 3 (M34079): 0.35
Ratio peptide treated:control, proteasome subunit beta type, 6 (M34079): 0.38
Ratio peptide treated:control, lymphocyte antigen (M38056): 3.2
Ratio peptide treated:control, H1 histone family, member 4 (M60748): 3.0
Ratio peptide treated:control, Cathepsin D (M63138): 0.36
Ratio peptide treated:control, protein kinase, cAMP-dependent, regulatory, type I, beta (M65066): 2.9
Ratio peptide treated:control, TGF, beta-induced, (M77349): 0.37
Ratio peptide treated:control, S100 calcium-binding protein A4 (M80563): 0.31
Ratio peptide treated:control, cathepsin E (M84424): 2.7
Ratio peptide treated:control, actinin, alpha 3 (M86407): 6.9
Ratio peptide treated:control, interferon regulatory factor 2 (NM 002199): 2.0
Ratio peptide treated:control, calumenin (NM_001219): 2.9
Ratio peptide treated:control, glutathione peroxidase 3 (NM_002084): 0.15
Ratio peptide treated:control, LPS-induced TNF-alpha factor (NM_004862): 0.41
Ratio peptide treated:control, bone morphogenetic protein 1 (NM_006129): 2.1
Ratio peptide treated:control, MAP kinase kinase kinase 2 (NM_006609): 0.32
Ratio peptide treated:control, SDF receptor 1 (NM_012428): 0.35
Ratio peptide treated:control, TERF1 (TRF1)-interacting nuclear factor 2 (NM_012461): 4.2
Ratio peptide treated:control, nuclear receptor binding protein (NM_013392): 0.38
Ratio peptide treated:control, cyclin-dependent kinase inhibitor 1B (S76988): 2.2
Ratio peptide treated:control, POU domain, class 4, transcription factor 2 (U06233): 2.8
Ratio peptide treated:control, MAP kinase kinase kinase kinase 2 (U07349): 0.46
Ratio peptide treated:control, MAP kinase-activated protein kinase 2 (U12779): 0.34
Ratio peptide treated:control, caspase 3 (U13737): 0.35
Ratio peptide treated:control, MAP kinase kinase 5 (U25265): 0.44
Ratio peptide treated:control, E2F transcription factor 5, p130-binding (U31556): 3.5
Ratio peptide treated:control, TNF superfamily member 10 (U37518): 0.46
Ratio peptide treated:control, integrin-linked kinase (U40282): 0.13
Ratio peptide treated:control, guanine nucleotide binding protein, gamma transducing activity polypeptide 1 (U41492): 3.3
Ratio peptide treated:control, mucosal vascular addressin cell adhesion molecule 1 (U43628): 3.2
Ratio peptide treated:control, 1-acylglycerol-3-phosphate O-acyltransferase 1 (U56417): 4.0
Ratio peptide treated:control, caspase 7 (U67319): 0.49
Ratio peptide treated:control, apoptosis inhibitor 4 (U75285): 4.2
Ratio peptide treated:control, TNF receptor superfamily, member 14 (U81232): 0.26
Ratio peptide treated:control, bone morphogenetic protein receptor, type IB (U89326): 2.1
Ratio peptide treated:control, transferrin receptor (X01060): 0.42
Ratio peptide treated:control, protease inhibitor 1 alpha-1-antitrypsin (X01683): 0.40
Ratio peptide treated:control, Cathepsin L (X12451): 0.44
Ratio peptide treated:control, cytochrome c oxidase subunit Vic (X13238): 0.30
Ratio peptide treated:control, cathepsin H (X16832): 0.47
Ratio peptide treated:control, protein kinase C, alpha (X52479): 2.4
Ratio peptide treated:control, glycoprotein IX (X52997): 3.4
Ratio peptide treated:control, glypican 1 (X54232): 3.2
Ratio peptide treated:control, jun D proto-oncogene (X56681): 0.35
Ratio peptide treated:control, proteasome subunit alpha type, 6 (X59417): 0.31
Ratio peptide treated:control, Sp3 transcription factor (X68560): 3.6
Ratio peptide treated:control, Vacuolar proton-ATPase, subunit D; V-ATPase, subunit D (X71490): 4.0
Ratio peptide treated:control, chymotrypsin-like protease (X71877): 2.9
Ratio peptide treated:control, phosphorylase kinase alpha 1 (X73874): 7.1
Ratio peptide treated:control, zinc finger protein 266 (X78924): 2.2
Ratio peptide treated:control, ribosomal protein L11 (X79234): 0.32
Ratio peptide treated:control, translational inhibitor protein p14.5 (X95384): 3.0
Ratio peptide treated:control, c-fos induced growth factor (Y12864): 2.3
Ratio peptide treated:control, disintegrin protease (Y13323): 0.21
Ratio peptide treated:control, matrix metalloproteinase 7 (Z11887): 0.49
Ratio peptide treated:control, proteoglycan 2 (Z26248): 9.3
Ratio peptide treated:control, matrix metalloproteinase 14 (Z48481): 0.32
Ratio peptide treated:control, POU domain, class 2, associating factor 1 (Z49194): 2.8
Ratio peptide treated:control, protease inhibitor 12 (Z81326): 0.48

Source: patent US20070134261A1, “Effectors of innate immunity” (priority 2001, published 2007)
